Measurements from patent publication US10016444B2, “Molecules for bone tissue regeneration” (ISTITUTO ORTOPEDICO RIZZOLI, priority 2014, dated 2018).

Experiments:
[1] = Determination of the release of H2S by amperometry; type: physicochemical
Experimental: Amperometry—the potential release of H2S from the tested compound was evaluated by means of the amperometric method, using an Apollo-4000 Free Radical Analyzer (WPI) connected to mini-electrodes selective for H2S. The experiments were conducted at room temperature in phosphate buffer (NaH2PO4.H2O 0.128 g, Na2HPO4.12H2O 0.597 g, NaCl 4.388 g in 500 mL H2O) at pH 7.4. When required by the experimental protocol, 4 mM L-cysteine was also dissolved in the above-described phosphate buffer, maintaining the pH a 7.4. After stabilisation of the mini-electrodes selective for H2S in 10 mL of buffer, 100 μL of the compound DM-22 solubilised in DMSO was added at the final concentration of 1 mM. The formation of H2S was recorded for 20 minutes. The same experimental procedure was also carried out in the buffer containing L-cysteine. The correspondence between the amperometric currents (recorded in pA) and the concentrations of H2S was determined by means of suitable calibration curves previously obtained using increasing concentrations of NaHS (1 μM, 3 μM, 5 μM, 10 μM) at pH 4.
The curves related to the progressive release of H2S as a function of time were analysed by means of the following equation: Ct=Cmax−(Cmax·e−k·t)
Where Ct is the concentration at time t, Cmax is the maximum concentration obtained during the recording time and the constant k is 0.693/t½, and where t½ is the time it takes to reach half of Cmax. The values of Cmax and t½ were calculated by means of software: Graph Pad Prism 4.0 and expressed as a value±standard error.

[2] = test system: human osteoclasts (OCs); conditions: OCs on Biocoat Osteologic slides, qualitative evaluation
Experimental: The ability of OCs to perform a physiological function of degrading the inorganic matrix was assessed by means of the ‘Pit Assay’, in which the OCs were cultured on Biocoat Osteologic (BD Bioscience) slides according to the procedure described in detail above.

[3] = test system: human mesenchymal stem cells (MSCs); assay: Mineralisation assay on MSCs (Alizarin Red); type: cell-based; conditions: for mineralising capacity of MSCs (Alizarin Red): osteogenic conditions, dose dependence
Experimental: The evaluation of the functional capacity to deposit inorganic matrix on the part of MSC cells was evaluated with an in vitro mineralisation assay, according to an already consolidated method (Grassi F. et al. J. Tissue Eng Reg Med, 2013); MSC cells were maintained under culture for 21 days in the presence of […] of ascorbic acid, 2 mM of β-glycerophosphate and 100 nM of dexamethasone. […] Finally, the mineralised matrix was visualised by staining with Alizarin Red and quantified by spectrophotometry (Nanoquant, Tecan Group, Mannedorf, Switzerland).

[4] = test system: human mesenchymal stem cells (MSCs)
Experimental: Briefly, 5 ml of bone marrow aspirate was obtained from consenting patients who underwent post-traumatic orthopaedic surgery. The mononuclear cells were obtained following centrifugation in a density gradient (Ficoll-Hypaque); the cells thus obtained were washed with PBS, resuspended in a D-MEM culture medium containing 15% FBS, then counted and seeded in plastic flasks at a concentration of 2×10^6 cells/flask T150. After 1 week, the non-adherent cells were removed and the adherent cells expanded in culture up to the concentration of 5000 MSC/cm^2 and used, finally, in the culture passage p.1 for the experiments.
Cytoxicity was evaluated in the culture after 24 h and 72 h by means of the lactate dehydrogenase (LDH) method, using a commercial kit (Cytotoxicity Detection Kit, Roche, Milan). In order to avoid interferences due to components present in serum, the cells were maintained under low serum conditions (5%) in the culture medium.

[5] = test system: human mesenchymal stem cells (MSCs); assay: Cell viability by Toluidine Blue staining of MSCs; type: cell-based; conditions: 72 h, 33 μM
Source text: At the end of the period of culture, moreover, the MSCs underwent staining with Toluidine Blue stain in order to evaluate the residual viability, which was then quantified by means of a spectrophotometer (Nanoquant, Tecan Group, Mannedorf, Switzerland).

[6] = test system: human mesenchymal stem cells (MSCs); assay: Cell proliferation of MSCs by tritiated thymidine method; type: cell-based; conditions: 33 μM, both at 24 and 72 h after stimulation, vs unstimulated control
Experimental: Cell proliferation was measured in the MSCs by means of the tritiated thymidine method, in the presence or absence of stimuli, following a method already published in precedence (Gabusi E. et al. J Cell Physiol. 2011). […] After 48 h, tritiated thymidine (Amersham Pharmacia Biotech Italy, Milan) was added to each well at the final concentration of 2 mCi/ml and the culture further incubated for 18 h at 37° C. Lastly, the plates were aspirated through glass fibre filters and dried and the radioactivity incorporated in the cells, indicative of proliferative activity, was measured by means of a TopCount Microplate Scintillation Counter (Packard Instrument Company, Meriden, Conn.). The data are expressed as cpm (count per minute).

[7] = test system: human osteoclasts (OCs); assay: Differentiation of human osteoclasts (TRAP staining count); type: cell-based; conditions: for inhibition of OC differentiation (number of TRAP-positive mature OCs): monocyte precursors with M-CSF and RANKL, 8 days, 1-33 μM
Source text: Human osteoclasts (OCs) were obtained according to a method already described and published (Grassi F. et al. J Cell Physiology 2011 April; 226(4):982-90). Briefly, the OCs were differentiated in vitro starting from monocytic precursors obtained from the peripheral blood of healthy, consenting donors; in particular, whole blood was stratified on Ficoll-Hypaque and the mononuclear cells were obtained by centrifugation. Monocytes were isolated from the latter by immunomagnetic separation of cells positive to the antigen CD11b via a MACS apparatus (Miltenyi Biotech, Calderara di Reno, Bologna). […] The number of mature OCs obtained for each condition of stimulation was then identified by means of a manual count, under a microscope, of the multinuclear cells positive to tartrate-resistant acid phosphatase (TRAP) staining.

O=C(NCCCC(O)(P(=O)(O)O)P(=O)(O)O)c1ccc(N=C=S)cc1 [DM-22]
concentration of H2S detected after 20 minutes of incubation ([1]; 1 mM compound in phosphate buffer pH 7.4, room temperature, no L-cysteine): approximately 1.5 μM | maximum concentration of H2S detected after 20 minutes of incubation ([1]; 1 mM compound in phosphate buffer pH 7.4 in the presence of 4 mM L-cysteine): approximately 45 μM | liberation of H2S ([1]; summary statement): capable of liberating H2S with slow-release kinetics | inhibition of erosive capacity of OCs (pits, qualitative) [2]: only at the concentrations of 10 and 33 μM do the eroded areas disappear completely | mineralisation compared to MSCs treated with alendronate ([3]; 21 days, concentrations of 3.3, 10 and 33 μM): significantly greater mineralisation | degree of mineralisation compared to control MSCs ([3]; 21 days, maximum concentration of 33 μM): significantly greater than that of the control MSCs | mineralising capacity of MSCs (Alizarin Red) ([3]; 21 days): dose-dependent capacity to induce mineralisation | range of concentration in which it stimulates the anabolic function and significantly inhibits osteoclasts ([3]; summary statement): 10 to 33 µM | cytotoxicity (LDH assay) ([4]; 1-33 μM, at both 24 h and 72 h, low serum (5%)): does not induce any cytotoxicity | cytotoxicity (LDH assay) compared to the basal level induced by serum deprivation ([4]; 24 h): significant protection | cellular toxicity (LDH assay) ([4]; 72 h, 33 μM): completely absent | cell viability (Toluidine Blue) compared to the unstimulated control [5]: does not bring about any decrease | proliferative activity in MSCs [6]: does not induce any significant decrease in proliferation | times less effective than alendronate in suppressing OCs ([7]; concentrations being equal): 33-100 times | inhibition of OC differentiation (number of TRAP-positive mature OCs) [7]: statistically significant only at the highest concentration (33 μM)

[Na+].[SH-] [NaHS, reference compound]
mineralising capacity of MSCs (Alizarin Red) ([3]; 21 days): respond as expected

NCCCC(O)(P(=O)(O)O)P(=O)(O)O [alendronate, reference compound]
cell viability (Toluidine Blue) compared to the unstimulated control [5]: significant decrease in cell viability | proliferative activity in MSCs [6]: significant inhibition of proliferative activity | inhibition of OC differentiation (number of TRAP-positive mature OCs) [7]: strong capacity to inhibit OC differentiation starting from the lowest concentration used in the study (1 μM)

[Ca+2].[Cl-].[Cl-] [calcium chloride, reference compound]
mineralising capacity of MSCs (Alizarin Red) ([3]; 21 days): respond as expected
